For one data set, the system named is social defeat model. Conditions: in vivo; cited from earlier work.
In data set [1] the test system is mTOR pathway, including protein kinase Akt and p70S6 kinase. The settings on record: cited from earlier work.
Data set [2] has as its system patients with acute exacerbated schizophrenia. Conditions: 60 mg P.O. once daily for up to 28 days, vs placebo; cited from earlier work.
Data set [3] relates to pyramidal cells in rat mPFC slices. The settings on record: lumateperone alone; cited from earlier work.
The test system of a further data set is schizophrenic patients. The settings on record: cited from earlier work.
The next data set deals with Male Wistar rats. Description: Conditioned avoidance response (CAR) test, Example 1. The class given is in vivo, rat. Conditions: for Suppression of CAR: 20 minutes; for Treatment effect in CAR: FIG. 2.
[4] abbreviates: schizophrenia with co-morbid depression.

Molecules are shown by their SMILES.

On to `CN1CCN2c3c(cccc31)[C@@H]1CN(CCCC(=O)c3ccc(F)cc3)CC[C@@H]12` [lumateperone, 4-((6bR,10aS)-3-methyl-2,3,6b,9,10,10a-hexahydro-1H-pyrido[3′,4′: 4,5]pyrrolo[1,2,3-de]quinoxalin-8(7H)-yl)-1-(4-fluorophenyl)-1-butanone], for which the “Effect in the social defeat model” value in the data set with social defeat model was “antidepressant-like effects”. For the same compound, in data set [1], the “Phosphorylation of mTOR pathway proteins” value is “increases phosphorylation of key proteins in the mTOR pathway”. Further, the “Symptoms of emotional experience” value in data set [2] was “significant and unexpected improvement in symptoms of emotional experience compared to placebo”. The “NMDA and AMPA receptor-induced currents” value in data set [3] is “activates both NMDA and AMPA receptor-induced currents”. For the same compound, in the data set with schizophrenic patients (setting [4]), the Depressive symptoms entry is recorded as “improves the depressive symptoms”. The Safety profile entry with schizophrenic patients (setting [4]) was “placebo-level safety profile and no metabolic changes or extra-pyramidal side effects”. Besides, the “Social functioning, positive and negative symptoms, cognition” value with schizophrenic patients (schizophrenic patients, at a low striatal D2 receptor occupancy) is “significantly improve social functioning, positive and negative symptoms, as well as impaired cognition”. Besides, the “Suppression of CAR” value was “significantly suppressed CAR compared to vehicle/saline” with Male Wistar rats (lumateperone 7 mg/kg i.p. (saline), vs vehicle/saline, FIG. 3); “significantly suppressed CAR compared to vehicle” in the data set on Male Wistar rats (lumateperone tosylate 3 mg/kg i.p., vs vehicle, FIG. 1); “significantly suppressed CAR compared to vehicle” in the data set on Male Wistar rats (lumateperone tosylate 10 mg/kg i.p., vs vehicle, FIG. 1). In addition, the “CAR, comparison between groups” value in the data set on Male Wistar rats (lumateperone 7 mg/kg, 90 minutes, vs lumateperone 3 mg/kg/saline, FIG. 4) is on record as “significantly different than lumateperone (3 mg/kg)/saline”. Further, the “Treatment effect in CAR” value in the data set with Male Wistar rats (lumateperone tosylate 10 mg/kg i.p., 90 minutes) was “significant treatment effect”.

`Cc1nc2n(c(=O)c1CCN1CCC(c3noc4cc(F)ccc34)CC1)CCCC2` [risperidone]: in the data set on Male Wistar rats (risperidone 0.4 mg/kg i.p., vs vehicle, FIG. 1), the “Suppression of CAR” value is recorded as “significantly suppressed CAR compared to vehicle”. The “Treatment effect in CAR” value with Male Wistar rats (risperidone 0.4 mg/kg i.p., 90 minutes) is “not for the other doses or for risperidone”.
